Source: ChEMBL document CHEMBL1129756, “Conformationally restricted TRH analogs: a probe for the pyroglutamate region” (J Med Chem, 1996)

Columns and labels:
[1] = molecular target: T1, Thyrotropin-releasing hormone receptor (Mus musculus, UniProt P21761); test: Binding affinity against TRH-R receptor in AtT-20 mouse pituitary tumor cells
T1 sequence (P21761 whole entry): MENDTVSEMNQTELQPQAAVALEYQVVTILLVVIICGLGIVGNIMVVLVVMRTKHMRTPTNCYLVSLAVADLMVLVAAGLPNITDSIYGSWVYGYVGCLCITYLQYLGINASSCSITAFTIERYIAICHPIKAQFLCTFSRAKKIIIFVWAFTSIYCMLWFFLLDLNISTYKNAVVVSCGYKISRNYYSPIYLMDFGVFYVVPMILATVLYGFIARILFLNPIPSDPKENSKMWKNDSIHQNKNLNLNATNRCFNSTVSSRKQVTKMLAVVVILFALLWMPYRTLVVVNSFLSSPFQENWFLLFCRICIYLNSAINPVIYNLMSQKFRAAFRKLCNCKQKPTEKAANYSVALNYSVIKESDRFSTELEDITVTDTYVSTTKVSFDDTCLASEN

[2] = molecular target: T1, Thyrotropin-releasing hormone receptor; test: Effective concentration required to activate TRH-R receptor in AtT-20 mouse pituitary tumor cells

Row | Compound | Ki [1] [µM] | EC50 [2] [µM]
1 | Cn1cnc(C[C@H](NC(=O)[C@@H]2CCC(=O)N2)C(=O)N2CCC[C@H]2C(N)=O)c1 | 0.0012 | 
2 | NC(=O)[C@@H]1CCCN1C(=O)[C@H](Cc1ccccc1)N1CC[C@]2(CCC(=O)N2)C1=O | 4.4 | 0.29
3 | NC(=O)[C@@H]1CCCN1C(=O)[C@H](Cc1cnc[nH]1)NC(=O)[C@@H]1CCC(=O)N1 [PROTIRELIN] |  | 0.00068
